Results reported in patent publication US11713344B2 (DONG-A ST CO., LTD., priority 2017, dated 2023).

How the values were obtained:
Human GLP-1 receptors = Human GLP-1 receptors (Homo sapiens, UniProt P43220); assay: GLP-1 receptor activation assay (CRE-luciferase reporter, CHO-K1)
Method: (§1) Then, the resulting increased luciferase activity was evaluated as a measurement of the effect on each receptor activation.
(§2) After 3 hours of transfection, medium was exchanged to Alpha Minimal Essential Medium (α-MEM) comprising 10% fetal bovine serum (FBS). Next day, the medium was exchanged to α-MEM comprising the analog of the present invention and 0.1% bovine serum albumin (BSA). After 6 hours, dual luciferase assay reagent was added in the same amount as the medium in which the cells were submerged, and firefly luciferase and Renilla luciferase activities were continuously measured. Firefly luciferase activity values were corrected against Renilla luciferase activity to yield transfection efficiency.

Human glucagon receptors = Human glucagon receptors (Homo sapiens, UniProt P47871); assay: Glucagon receptor activation assay (CRE-luciferase reporter, CHO-K1)
Human glucagon receptors, sequence (P47871 26-477): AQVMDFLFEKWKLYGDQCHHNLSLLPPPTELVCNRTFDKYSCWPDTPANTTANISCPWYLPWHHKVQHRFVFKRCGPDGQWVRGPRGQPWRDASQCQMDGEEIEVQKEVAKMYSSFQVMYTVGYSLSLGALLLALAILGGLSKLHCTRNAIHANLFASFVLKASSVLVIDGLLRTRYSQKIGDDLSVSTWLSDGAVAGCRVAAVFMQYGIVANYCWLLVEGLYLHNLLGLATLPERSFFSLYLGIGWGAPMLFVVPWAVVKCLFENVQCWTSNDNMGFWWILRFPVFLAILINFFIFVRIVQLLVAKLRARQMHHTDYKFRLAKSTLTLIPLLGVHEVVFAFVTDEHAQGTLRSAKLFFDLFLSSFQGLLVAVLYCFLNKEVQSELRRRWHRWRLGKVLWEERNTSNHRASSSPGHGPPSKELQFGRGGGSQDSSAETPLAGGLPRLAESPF
Method: as §1, §2

Human GLP-1 receptors, sequence (P43220 24-463): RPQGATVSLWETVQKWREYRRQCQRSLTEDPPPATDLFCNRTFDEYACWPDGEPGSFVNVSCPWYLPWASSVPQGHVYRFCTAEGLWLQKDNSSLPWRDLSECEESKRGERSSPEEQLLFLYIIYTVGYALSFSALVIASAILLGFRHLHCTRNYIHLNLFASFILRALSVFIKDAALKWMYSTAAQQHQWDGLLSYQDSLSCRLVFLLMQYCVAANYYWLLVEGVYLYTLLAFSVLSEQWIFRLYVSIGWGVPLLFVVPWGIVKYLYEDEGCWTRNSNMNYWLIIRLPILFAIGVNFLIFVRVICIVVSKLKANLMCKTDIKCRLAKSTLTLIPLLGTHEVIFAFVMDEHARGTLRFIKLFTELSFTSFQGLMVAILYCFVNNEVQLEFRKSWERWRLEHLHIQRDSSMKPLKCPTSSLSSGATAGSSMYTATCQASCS

Row | EC50 (Human GLP-1 receptors) [nM] | EC50 (Human glucagon receptors) [nM] | Structure (SMILES)
1 | < 0.01 | 0.01 to 0.1 | CCCCCCCCCCCCCCCCCC(=O)N[C@@H](CCC(=O)NCCOCCOCC(=O)NCCOCCOCC(=O)NCCOCCOCC(=O)NCCOCCOCC(=O)NCCCC[C@H](NC(=O)[C@H](CC(=O)O)NC(=O)[C@H](CO)NC(=O)[C@@H](NC(=O)[C@H](Cc1ccccc1)NC(=O)[C@@H](NC(=O)CNC(=O)[C@H](CCC(N)=O)NC(=O)C(C)(C)NC(=O)[C@@H](N)Cc1c[nH]cn1)[C@@H](C)O)[C@@H](C)O)C(=O)N[C@@H](CO)C(=O)N[C@@H](CCCCN)C(=O)N[C@@H](Cc1ccc(O)cc1)C(=O)N[C@@H](CC(C)C)C(=O)N[C@@H](CC(=O)O)C(=O)N[C@H]1CCC(=O)NCCCC[C@@H](C(=O)N[C@@H](CC(=O)O)C(=O)N[C@@H](Cc2ccccc2)C(=O)N[C@H](C(=O)N[C@@H](CCC(N)=O)C(=O)N[C@@H](Cc2c[nH]c3ccccc23)C(=O)N[C@@H](CC(C)C)C(=O)N[C@@H](CCSC)C(=O)N[C@@H](CC(N)=O)C(=O)N[C@H](C(=O)N[C@@H](CCCCN)C(N)=O)[C@@H](C)O)C(C)C)NC(=O)[C@H](C)NC(=O)[C@H](CCCNC(=N)N)NC(=O)[C@H](CCCNC(=N)N)NC1=O)C(=O)O [Compound 24, H-HAibQGTFTSDZSKYLDERRAKDFVQWLMNTK-NH2]
2 | 0.01 to 0.1 | 0.01 to 0.1 | CCCCCCCCCCCCCCCCCCCC(=O)N[C@@H](CCC(=O)NCCOCCOCC(=O)NCCOCCOCC(=O)NCCCC[C@H](NC(=O)[C@H](CC(=O)O)NC(=O)[C@H](CO)NC(=O)[C@@H](NC(=O)[C@H](Cc1ccccc1)NC(=O)[C@@H](NC(=O)CNC(=O)[C@H](CCC(N)=O)NC(=O)C(C)(C)NC(=O)[C@@H](N)Cc1c[nH]cn1)[C@@H](C)O)[C@@H](C)O)C(=O)N[C@@H](CO)C(=O)N[C@@H](CCCCN)C(=O)N[C@@H](Cc1ccc(O)cc1)C(=O)N[C@@H](CC(C)C)C(=O)N[C@@H](CC(=O)O)C(=O)NC(C)(C)C(=O)N[C@@H](CCCNC(=N)N)C(=O)N[C@@H](CCCNC(=N)N)C(=O)N[C@@H](C)C(=O)N[C@@H](CCC(N)=O)C(=O)N[C@@H](CC(=O)O)C(=O)N[C@@H](Cc1ccccc1)C(=O)N[C@H](C(=O)N[C@@H](CCC(N)=O)C(=O)N[C@@H](Cc1c[nH]c2ccccc12)C(=O)N[C@@H](CC(C)C)C(=O)N[C@@H](CCSC)C(=O)N[C@@H](CC(N)=O)C(=O)N[C@H](C(=O)N[C@@H](CCCCN)C(=O)O)[C@@H](C)O)C(C)C)C(=O)O [Compound 8]
3 | < 0.01 | 0.01 to 0.1 | CSCC[C@H](NC(=O)[C@H](CC(C)C)NC(=O)[C@H](Cc1c[nH]c2ccccc12)NC(=O)[C@H](CCC(N)=O)NC(=O)[C@@H](NC(=O)[C@H](Cc1ccccc1)NC(=O)[C@H](CCC(=O)O)NC(=O)[C@@H]1CCCCNC(=O)CC[C@H](NC(=O)[C@H](CC(=O)O)NC(=O)[C@H](CC(C)C)NC(=O)[C@H](Cc2ccc(O)cc2)NC(=O)[C@H](CCCCN)NC(=O)[C@H](CO)NC(=O)[C@H](Cc2ccc(O)cc2)NC(=O)[C@H](CC(=O)O)NC(=O)[C@H](CO)NC(=O)[C@@H](NC(=O)[C@H](Cc2ccccc2)NC(=O)[C@@H](NC(=O)CNC(=O)[C@H](CCC(N)=O)NC(=O)C(C)(C)NC(=O)[C@@H](N)Cc2c[nH]cn2)[C@@H](C)O)[C@@H](C)O)C(=O)N[C@@H](CCCCN)C(=O)N[C@@H](CCCNC(=N)N)C(=O)N[C@@H](C)C(=O)N1)C(C)C)C(=O)N[C@@H](CC(N)=O)C(=O)N[C@H](C(=O)N[C@@H](CCCCN)C(=O)N[C@@H](CS)C(=O)O)[C@@H](C)O [Compound 47, reference compound]
4 | < 0.01 | < 0.01 | CCCCCCCCCCCCCCCCCC(=O)N[C@@H](CCC(=O)NCCOCCOCC(=O)NCCOCCOCC(=O)NCCCC[C@H](NC(=O)[C@H](CC(=O)O)NC(=O)[C@H](CO)NC(=O)[C@@H](NC(=O)[C@H](Cc1ccccc1)NC(=O)[C@@H](NC(=O)CNC(=O)[C@H](CCC(N)=O)NC(=O)C(C)(C)NC(=O)[C@@H](N)Cc1c[nH]cn1)[C@@H](C)O)[C@@H](C)O)C(=O)N[C@@H](CO)C(=O)N[C@@H](CCCCN)C(=O)N[C@@H](Cc1ccc(O)cc1)C(=O)N[C@@H](CC(C)C)C(=O)N[C@@H](CC(=O)O)C(=O)N[C@H]1CC(=O)NCC(=O)NCCCC[C@@H](C(=O)N[C@@H](CC(=O)O)C(=O)N[C@@H](Cc2ccccc2)C(=O)N[C@H](C(=O)N[C@@H](CCC(N)=O)C(=O)N[C@@H](Cc2c[nH]c3ccccc23)C(=O)N[C@@H](CC(C)C)C(=O)N[C@@H](CCSC)C(=O)N[C@@H](CC(N)=O)C(=O)N[C@H](C(=O)N[C@@H](CCCCN)C(=O)O)[C@@H](C)O)C(C)C)NC(=O)[C@H](C)NC(=O)[C@H](CCCNC(=N)N)NC(=O)[C@H](CCCNC(=N)N)NC1=O)C(=O)O [Compound 37, H-HAibQGTFTSDZSKYLDDRRAKDFVQWLMNTK-OH]
5 | < 0.01 | < 0.01 | CCCCCCCCCCCCCCCCCC(=O)N[C@@H](CCC(=O)NCCOCCOCC(=O)NCCOCCOCC(=O)NCCCC[C@H](NC(=O)[C@H](CC(=O)O)NC(=O)[C@H](CO)NC(=O)[C@@H](NC(=O)[C@H](Cc1ccccc1)NC(=O)[C@@H](NC(=O)CNC(=O)[C@H](CCC(N)=O)NC(=O)C(C)(C)NC(=O)[C@@H](N)Cc1c[nH]cn1)[C@@H](C)O)[C@@H](C)O)C(=O)N[C@@H](CO)C(=O)N[C@@H](CCCCN)C(=O)N[C@@H](Cc1ccc(O)cc1)C(=O)N[C@@H](CC(C)C)C(=O)N[C@@H](CC(=O)O)C(=O)NC(C)(C)C(=O)N[C@@H](CCCNC(=N)N)C(=O)N[C@@H](CCCNC(=N)N)C(=O)N[C@@H](C)C(=O)N[C@@H](CCC(N)=O)C(=O)N[C@@H](CC(=O)O)C(=O)N[C@@H](Cc1ccccc1)C(=O)N[C@H](C(=O)N[C@@H](CCC(N)=O)C(=O)N[C@@H](Cc1c[nH]c2ccccc12)C(=O)N[C@@H](CC(C)C)C(=O)N[C@@H](CCSC)C(=O)N[C@@H](CC(N)=O)C(=O)N[C@H](C(=O)N[C@@H](CCCCN)C(N)=O)[C@@H](C)O)C(C)C)C(=O)O [Compound 6]
6 | 0.1 to 1 | 0.1 to 1 | CSCC[C@H](NC(=O)[C@H](CC(C)C)NC(=O)[C@H](Cc1c[nH]c2ccccc12)NC(=O)[C@H](CCC(N)=O)NC(=O)[C@@H](NC(=O)[C@H](Cc1ccccc1)NC(=O)[C@H](CC(=O)O)NC(=O)[C@H](CCC(N)=O)NC(=O)[C@H](C)NC(=O)[C@H](CCCNC(=N)N)NC(=O)[C@H](CCCNC(=N)N)NC(=O)C(C)(C)NC(=O)[C@H](CC(=O)O)NC(=O)[C@H](CC(C)C)NC(=O)[C@H](Cc1ccc(O)cc1)NC(=O)[C@H](CCCCN)NC(=O)[C@H](CO)NC(=O)[C@H](CCCCNC(=O)COCCOCCNC(=O)COCCOCCNC(=O)CC[C@H](NC(=O)CCCCCCCCCCCCCCC(=O)N[C@H](C(=O)O)C(C)C)C(=O)O)NC(=O)[C@H](CC(=O)O)NC(=O)[C@H](CO)NC(=O)[C@@H](NC(=O)[C@H](Cc1ccccc1)NC(=O)[C@@H](NC(=O)CNC(=O)[C@H](CCC(N)=O)NC(=O)C(C)(C)NC(=O)[C@@H](N)Cc1c[nH]cn1)[C@@H](C)O)[C@@H](C)O)C(C)C)C(=O)N[C@@H](CC(N)=O)C(=O)N[C@H](C(=O)N[C@@H](CCCCN)C(=O)O)[C@@H](C)O [Compound 46]
7 | < 0.01 | < 0.01 | CCCCCCCCCCCCCCCCCC(=O)N[C@@H](CCC(=O)NCCOCCOCC(=O)NCCOCCOCC(=O)NCCCC[C@H](NC(=O)[C@H](C)NC(=O)[C@H](CCCNC(=N)N)NC(=O)[C@H](CCCNC(=N)N)NC(=O)C(C)(C)NC(=O)[C@H](CC(=O)O)NC(=O)[C@H](CC(C)C)NC(=O)[C@H](Cc1ccc(O)cc1)NC(=O)[C@H](CCCCN)NC(=O)[C@H](CO)NC(=O)[C@H](Cc1ccc(O)cc1)NC(=O)[C@H](CC(=O)O)NC(=O)[C@H](CO)NC(=O)[C@@H](NC(=O)[C@H](Cc1ccccc1)NC(=O)[C@@H](NC(=O)CNC(=O)[C@H](CCC(N)=O)NC(=O)C(C)(C)NC(=O)[C@@H](N)Cc1c[nH]cn1)[C@@H](C)O)[C@@H](C)O)C(=O)N[C@@H](CC(=O)O)C(=O)N[C@@H](Cc1ccccc1)C(=O)N[C@H](C(=O)N[C@@H](CCC(N)=O)C(=O)N[C@@H](Cc1c[nH]c2ccccc12)C(=O)N[C@@H](CC(C)C)C(=O)N[C@@H](CCSC)C(=O)N[C@@H](CC(N)=O)C(=O)N[C@H](C(=O)N[C@@H](CCCCN)C(=O)O)[C@@H](C)O)C(C)C)C(=O)O [Compound 16]
8 | < 0.01 | < 0.01 | CCCCCCCCCCCCCCCCCC(=O)N[C@@H](CCC(=O)N[C@@H](CCC(=O)NCCOCCOCC(=O)NCCOCCOCC(=O)NCCCC[C@H](NC(=O)[C@H](CC(=O)O)NC(=O)[C@H](CO)NC(=O)[C@@H](NC(=O)[C@H](Cc1ccccc1)NC(=O)[C@@H](NC(=O)CNC(=O)[C@H](CCC(N)=O)NC(=O)C(C)(C)NC(=O)[C@@H](N)Cc1c[nH]cn1)[C@@H](C)O)[C@@H](C)O)C(=O)N[C@@H](CO)C(=O)N[C@@H](CCCCN)C(=O)N[C@@H](Cc1ccc(O)cc1)C(=O)N[C@@H](CC(C)C)C(=O)N[C@@H](CC(=O)O)C(=O)NC(C)(C)C(=O)N[C@@H](CCCNC(=N)N)C(=O)N[C@@H](CCCNC(=N)N)C(=O)N[C@@H](C)C(=O)N[C@@H](CCC(N)=O)C(=O)N[C@@H](CC(=O)O)C(=O)N[C@@H](Cc1ccccc1)C(=O)N[C@H](C(=O)N[C@@H](CCC(N)=O)C(=O)N[C@@H](Cc1c[nH]c2ccccc12)C(=O)N[C@@H](CC(C)C)C(=O)N[C@@H](CCSC)C(=O)N[C@@H](CC(N)=O)C(=O)N[C@H](C(=O)N[C@@H](CCCCN)C(=O)O)[C@@H](C)O)C(C)C)C(=O)O)C(=O)O [Compound 9]
9 | < 0.01 | < 0.01 | CCCCCCCCCCCCCCCCCC(=O)N[C@@H](CCC(=O)NCCOCCOCC(=O)NCCOCCOCC(=O)NCCOCCOCC(=O)NCCOCCOCC(=O)NCCCC[C@H](NC(=O)[C@H](CC(=O)O)NC(=O)[C@H](CO)NC(=O)[C@@H](NC(=O)[C@H](Cc1ccccc1)NC(=O)[C@@H](NC(=O)CNC(=O)[C@H](CCC(N)=O)NC(=O)C(C)(C)NC(=O)[C@@H](N)Cc1c[nH]cn1)[C@@H](C)O)[C@@H](C)O)C(=O)N[C@@H](CO)C(=O)N[C@@H](CCCCN)C(=O)N[C@@H](Cc1ccc(O)cc1)C(=O)N[C@@H](CC(C)C)C(=O)N[C@@H](CC(=O)O)C(=O)N[C@H]1CCC(=O)NCCCC[C@@H](C(=O)N[C@@H](CC(=O)O)C(=O)N[C@@H](Cc2ccccc2)C(=O)N[C@H](C(=O)N[C@@H](CCC(N)=O)C(=O)N[C@@H](Cc2c[nH]c3ccccc23)C(=O)N[C@@H](CC(C)C)C(=O)N[C@@H](CCSC)C(=O)N[C@@H](CC(N)=O)C(=O)N[C@H](C(=O)N[C@@H](CCCCN)C(=O)O)[C@@H](C)O)C(C)C)NC(=O)[C@H](C)NC(=O)[C@H](CCCNC(=N)N)NC(=O)[C@H](CCCNC(=N)N)NC1=O)C(=O)O [Compound 25, H-HAibQGTFTSDZSKYLDERRAKDFVQWLMNTK-OH]
